What was measured:
Test in all cases: Weeding effect in post-emergence stage
Type in all cases: in vivo
Echinochloa crusgalli = settings: for Weeding effect in post-emergence stage, Echinochloa crusgalli (level): fresh weight control rate level; for Weeding effect in post-emergence stage, Echinochloa crusgalli: level of fresh weight growth control rate
Method in brief: (§1)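 Weeds were treated post-emergence at 2-3 leaves with compound doses from 7.5 up to 500 g/ha, formulated in acetone–Tween 80 with methyl oleate synergist. Efficacy was assessed as growth control after 3 weeks.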

Alopecurus japonicus = settings: for Weeding effect in post-emergence stage, Alopecurus japonicus (level): fresh weight control rate level; for Weeding effect in post-emergence stage, Alopecurus japonicus: level of fresh weight growth control rate
Method in brief: as §1

Abutilon theophrasti = settings: for Weeding effect in post-emergence stage, Abutilon theophrasti (level): fresh weight control rate level; for Weeding effect in post-emergence stage, Abutilon theophrasti: level of fresh weight growth control rate
Method in brief: as §1

Digitaria sanguinalis = settings: for Weeding effect in post-emergence stage, Digitaria sanguinalis (level): fresh weight control rate level; for Weeding effect in post-emergence stage, Digitaria sanguinalis: level of fresh weight growth control rate
Method in brief: as §1

Eleusine indica = settings: for Weeding effect in post-emergence stage, Eleusine indica (level): fresh weight control rate level; for Weeding effect in post-emergence stage, Eleusine indica: level of fresh weight growth control rate
Method in brief: as §1

Setaria viridis = settings: for Weeding effect in post-emergence stage, Setaria viridis (level): fresh weight control rate level; for Weeding effect in post-emergence stage, Setaria viridis: level of fresh weight growth control rate
Method in brief: as §1

Compound	Weeding effect in post-emergence stage, Echinochloa crusgalli (Echinochloa crusgalli; Dose 15 g/ha)	Weeding effect in post-emergence stage, Alopecurus japonicus (Alopecurus japonicus; Dose 15 g/ha)	Weeding effect in post-emergence stage, Abutilon theophrasti (Abutilon theophrasti; Dose 15 g/ha)	Weeding effect in post-emergence stage, Digitaria sanguinalis (Digitaria sanguinalis; Dose 15 g/ha)	Weeding effect in post-emergence stage, Eleusine indica (Eleusine indica; Dose 15 g/ha)	Weeding effect in post-emergence stage, Setaria viridis (Setaria viridis; Dose 15 g/ha)	further results
COC(=O)C(CC1CC1)O/N=C/c1cc(-n2c(=O)cc(C(F)(F)F)n(C)c2=O)c(F)cc1Cl (racemic) [Compound 462]							Weeding effect in post-emergence stage, Echinochloa crusgalli (level) (Echinochloa crusgalli; Dose 15 g/ha): 5 (Level 5: growth control rate is above 85%); Weeding effect in post-emergence stage, Alopecurus japonicus (level) (Alopecurus japonicus; Dose 15 g/ha): 5 (Level 5: growth control rate is above 85%); Weeding effect in post-emergence stage, Abutilon theophrasti (level) (Abutilon theophrasti; Dose 15 g/ha): 5 (Level 5: growth control rate is above 85%); Weeding effect in post-emergence stage, Digitaria sanguinalis (level) (Digitaria sanguinalis; Dose 15 g/ha): 5 (Level 5: growth control rate is above 85%); Weeding effect in post-emergence stage, Eleusine indica (level) (Eleusine indica; Dose 15 g/ha): 5 (Level 5: growth control rate is above 85%); Weeding effect in post-emergence stage, Setaria viridis (level) (Setaria viridis; Dose 15 g/ha): 5 (Level 5: growth control rate is above 85%)
COC(=O)C(CF)O/N=C/c1cc(-n2c(=O)cc(C(F)(F)F)n(C)c2=O)c(F)cc1Cl (racemic) [Compound 463]							Weeding effect in post-emergence stage, Echinochloa crusgalli (level) (Echinochloa crusgalli; Dose 15 g/ha): 5 (Level 5: growth control rate is above 85%); Weeding effect in post-emergence stage, Alopecurus japonicus (level) (Alopecurus japonicus; Dose 15 g/ha): 5 (Level 5: growth control rate is above 85%); Weeding effect in post-emergence stage, Abutilon theophrasti (level) (Abutilon theophrasti; Dose 15 g/ha): 5 (Level 5: growth control rate is above 85%); Weeding effect in post-emergence stage, Digitaria sanguinalis (level) (Digitaria sanguinalis; Dose 15 g/ha): 5 (Level 5: growth control rate is above 85%); Weeding effect in post-emergence stage, Eleusine indica (level) (Eleusine indica; Dose 15 g/ha): 5 (Level 5: growth control rate is above 85%); Weeding effect in post-emergence stage, Setaria viridis (level) (Setaria viridis; Dose 15 g/ha): 5 (Level 5: growth control rate is above 85%)
COC(=O)C(Cc1ccccc1)O/N=C/c1cc(-n2c(=O)cc(C(F)(F)F)n(C)c2=O)c(F)cc1Cl (racemic) [Compound 469]							Weeding effect in post-emergence stage, Echinochloa crusgalli (level) (Echinochloa crusgalli; Dose 15 g/ha): 5 (Level 5: growth control rate is above 85%); Weeding effect in post-emergence stage, Alopecurus japonicus (level) (Alopecurus japonicus; Dose 15 g/ha): 5 (Level 5: growth control rate is above 85%); Weeding effect in post-emergence stage, Abutilon theophrasti (level) (Abutilon theophrasti; Dose 15 g/ha): 5 (Level 5: growth control rate is above 85%); Weeding effect in post-emergence stage, Digitaria sanguinalis (level) (Digitaria sanguinalis; Dose 15 g/ha): 5 (Level 5: growth control rate is above 85%); Weeding effect in post-emergence stage, Eleusine indica (level) (Eleusine indica; Dose 15 g/ha): 5 (Level 5: growth control rate is above 85%); Weeding effect in post-emergence stage, Setaria viridis (level) (Setaria viridis; Dose 15 g/ha): 5 (Level 5: growth control rate is above 85%)
COC(=O)C(C)O/N=C/c1cc(-n2c(=O)c(C)c(C(F)(F)F)n(C)c2=O)c(F)cc1Cl (racemic) [Compound 473]							Weeding effect in post-emergence stage, Echinochloa crusgalli (level) (Echinochloa crusgalli; Dose 30 g/ha): 5 (Level 5: growth control rate is above 85%); Weeding effect in post-emergence stage, Alopecurus japonicus (level) (Alopecurus japonicus; Dose 30 g/ha): 5 (Level 5: growth control rate is above 85%); Weeding effect in post-emergence stage, Abutilon theophrasti (level) (Abutilon theophrasti; Dose 30 g/ha): 5 (Level 5: growth control rate is above 85%); Weeding effect in post-emergence stage, Digitaria sanguinalis (level) (Digitaria sanguinalis; Dose 30 g/ha): 5 (Level 5: growth control rate is above 85%); Weeding effect in post-emergence stage, Eleusine indica (level) (Eleusine indica; Dose 30 g/ha): 5 (Level 5: growth control rate is above 85%); Weeding effect in post-emergence stage, Setaria viridis (level) (Setaria viridis; Dose 30 g/ha): 5 (Level 5: growth control rate is above 85%)
CCOC(=O)[C@@H](C)O/N=C/c1cc(-n2c(=O)n(C)c(=S)n(C)c2=O)c(F)cc1Cl [3(R)]	5 (Level 5: growth control rate is above 85%)	4 (Level 4: growth control rate is greater than or equal to 60% and less than 85%)	5 (Level 5: growth control rate is above 85%)	5 (Level 5: growth control rate is above 85%)	5 (Level 5: growth control rate is above 85%)	5 (Level 5: growth control rate is above 85%)	
CCCOC(=O)[C@@H](C)O/N=C/c1cc(-n2c(=O)n(C)c(=S)n(C)c2=O)c(F)cc1Cl [4(R)]	5 (Level 5: growth control rate is above 85%)	5 (Level 5: growth control rate is above 85%)	5 (Level 5: growth control rate is above 85%)	5 (Level 5: growth control rate is above 85%)	5 (Level 5: growth control rate is above 85%)	5 (Level 5: growth control rate is above 85%)	
CC(C)OC(=O)[C@@H](C)O/N=C/c1cc(-n2c(=O)n(C)c(=S)n(C)c2=O)c(F)cc1Cl [5(R)]	5 (Level 5: growth control rate is above 85%)	5 (Level 5: growth control rate is above 85%)	5 (Level 5: growth control rate is above 85%)	5 (Level 5: growth control rate is above 85%)	5 (Level 5: growth control rate is above 85%)	5 (Level 5: growth control rate is above 85%)	
C=CCCOC(=O)[C@@H](C)O/N=C/c1cc(-n2c(=O)n(C)c(=S)n(C)c2=O)c(F)cc1Cl [6(R)]	5 (Level 5: growth control rate is above 85%)	5 (Level 5: growth control rate is above 85%)	5 (Level 5: growth control rate is above 85%)	5 (Level 5: growth control rate is above 85%)	5 (Level 5: growth control rate is above 85%)	5 (Level 5: growth control rate is above 85%)	
C[C@@H](O/N=C/c1cc(-n2c(=O)n(C)c(=S)n(C)c2=O)c(F)cc1Cl)C(=O)OCC1CC1 [9(R)]	5 (Level 5: growth control rate is above 85%)	5 (Level 5: growth control rate is above 85%)	5 (Level 5: growth control rate is above 85%)	5 (Level 5: growth control rate is above 85%)	5 (Level 5: growth control rate is above 85%)	5 (Level 5: growth control rate is above 85%)	
C[C@@H](O/N=C/c1cc(-n2c(=O)n(C)c(=S)n(C)c2=O)c(F)cc1Cl)C(=O)OCCF [10(R)]	5 (Level 5: growth control rate is above 85%)	5 (Level 5: growth control rate is above 85%)	5 (Level 5: growth control rate is above 85%)	5 (Level 5: growth control rate is above 85%)	5 (Level 5: growth control rate is above 85%)	5 (Level 5: growth control rate is above 85%)	
C[C@@H](O/N=C/c1cc(-n2c(=O)n(C)c(=S)n(C)c2=O)c(F)cc1Cl)C(=O)OCCCF [11(R)]	5 (Level 5: growth control rate is above 85%)	5 (Level 5: growth control rate is above 85%)	5 (Level 5: growth control rate is above 85%)	5 (Level 5: growth control rate is above 85%)	5 (Level 5: growth control rate is above 85%)	5 (Level 5: growth control rate is above 85%)	
C[C@@H](O/N=C/c1cc(-n2c(=O)n(C)c(=S)n(C)c2=O)c(F)cc1Cl)C(=O)OCCCC(F)(F)F [12(R)]	5 (Level 5: growth control rate is above 85%)	5 (Level 5: growth control rate is above 85%)	5 (Level 5: growth control rate is above 85%)	5 (Level 5: growth control rate is above 85%)	5 (Level 5: growth control rate is above 85%)	5 (Level 5: growth control rate is above 85%)	
COCCOC(=O)[C@@H](C)O/N=C/c1cc(-n2c(=O)n(C)c(=S)n(C)c2=O)c(F)cc1Cl [14(R)]	5 (Level 5: growth control rate is above 85%)	4 (Level 4: growth control rate is greater than or equal to 60% and less than 85%)	5 (Level 5: growth control rate is above 85%)	5 (Level 5: growth control rate is above 85%)	5 (Level 5: growth control rate is above 85%)	5 (Level 5: growth control rate is above 85%)	
